Key:
[1] = test system: Gefitinib-resistant lung cancer cells; test: mitochondrial damage, oxidative stress and ferroptosis in resistant cells; type: cell-based
Procedure: (§1) The present invention further provides an application of a gold (I) Gefitinib derivative, mainly providing the study of the effect of Embodiment 8 (L1Au2 for short). […] L1Au2 is mainly used to treat lung cancer resistant to first- and second-generation EGFR-TKI. In vitro experiments on L1Au2 were conducted against Gefitinib-sensitive and Gefitinib-resistant lung cancer. […] The cell lines used in the experiment are internationally universal lung cancer tumor cell lines: Gefitinib-sensitive lung cancer cell line PC9, and Gefitinib-resistant cell lines PC9GR and H1975. […] See FIG. 3 for the effect diagram of a specific product.

lung cancer cells [2] = test: Annexin V-FITC/PI double staining apoptosis assay; type: cell-based
Procedure: as §1

[3] = test system: drug-resistant subcutaneous tumors; test: subcutaneous drug-resistant tumor model in nude mice; conditions: in vivo and in vitro
Procedure: as §1

thioredoxin reductase = thioredoxin reductase activity; type: biochemical
Procedure: as §1

[4] = test system: lung cancer cell lines PC9, PC9GR and H1975; test: plate cloning (colony formation) experiment; type: cell-based
Procedure: as §1

lung cancer cells [5] = test: Transwell migration experiment; type: cell-based
Procedure: as §1

[6] = test system: lung cancer cell lines PC9, PC9GR and H1975; test: CCK-8 proliferation / cell death experiment; type: cell-based
Procedure: as §1

EGFR-related pathway = EGFR-related pathway activation; type: cell-based
Procedure: as §1

GPX4 protein = biological target: T1, GPX4 protein (Homo sapiens, UniProt P36969); test: GPX4 protein degradation; type: cell-based; conditions: by promoting autophagy and inducing GPX4 ubiquitination
T1 construct: endogenous in cells; host or cells: Gefitinib-resistant lung cancer cells (PC9GR / H1975; not specified which)
T1 sequence (P36969 1-197): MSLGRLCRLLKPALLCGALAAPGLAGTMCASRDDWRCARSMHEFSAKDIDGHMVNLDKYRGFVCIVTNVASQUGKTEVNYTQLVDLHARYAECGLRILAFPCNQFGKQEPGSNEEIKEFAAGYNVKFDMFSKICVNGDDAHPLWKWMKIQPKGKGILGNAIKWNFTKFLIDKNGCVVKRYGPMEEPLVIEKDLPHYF
Procedure: as §1

With `COc1cc2ncnc(Nc3ccc(F)c(Cl)c3)c2cc1OCCCC#[C][Au][PH]12CN3CN(CN(C3)C1)C2` [Embodiment 8] the intracellular mitochondrial damage [1] was “induces intracellular mitochondrial damage”, the “intracellular oxidative stress level” value [1] was “severely induces elevation of the intracellular oxidative stress level” and the ferroptosis ([1]; Gefitinib-resistant lung cancer cells) was “resulting in ferroptosis”. The “apoptosis of lung cancer cells (FIG. 2D)” value (lung cancer cells [2]) was “significantly promoted the apoptosis”, the “performance compared with Gefitinib against drug-resistant tumors” value [3] was “performs better than Gefitinib” and the thioredoxin reductase activity (thioredoxin reductase) was “inhibits thioredoxin reductase activity”. The “colony formation ability of lung cancer cells (FIG. 2B)” value [4] was “significantly inhibits the colony formation ability”, the “migration ability of lung cancer cells (FIG. 2C)” value (lung cancer cells [5]) was “significantly inhibited the migration ability” and the “lung cancer cell death over time (FIG. 2A)” value ([6]; CCK8) was “induces lung cancer cell death in a time-dependent manner”. For the same molecule, the inhibition of proliferation ([6]; CCK-8 and plate cloning, PC9, PC9GR, H1975) was “obvious effect on inhibiting proliferation”, the EGFR-related pathway activation (EGFR-related pathway) was “inhibits EGFR-related pathway activation” and the GPX4 protein level (GPX4 protein) was “degrades GPX4 protein”.

From patent US20250154179A1, “GOLD (I) GEFITINIB DERIVATIVES AND PREPARATION METHOD AND APPLICATION THEREOF” (TONGJI HOSPITAL, TONGJI MEDICAL COLLEGE, HUAZHONG …, priority 2023, published 2025)
